Measured values as given in patent publication US20250230193A1, “CYCLIC COMPOUND HAVING SELECTIVE KRAS INHIBITORY EFFECT ON HRAS AND NRAS” (CHUGAI SEIYAKU KABUSHIKI KAISHA, priority 2022, published 2025).
Where a SMILES comes first, the peptide text is derived from it. Bridges are numbered along the chain shown (N, C = ends). [ ]: non-standard residue; d: D form. The star is where a group is joined. hPhe(3-Cl-4-CF3) = N[C@@H](CCc1ccc(C(F)(F)F)c(Cl)c1)C(=O)O; NPrPhe(4-CF3) = CCCN[C@@H](Cc1ccc(C(F)(F)F)cc1)C(=O)O; Piperazinyl(4-(3-oxetanyl)) = C1OCC1N1CCN(*)CC1; 3Oxa8azabicyclo(3.2.1)octane = C1CC2COCC1N2*; NMeAbu(4,4,4-F3) = CN[C@@H](CC(F)(F)F)C(=O)O; NMeGly(cPent) = CN[C@H](C(=O)O)C1CCCC1; NMeGly(cBu) = CN[C@H](C(=O)O)C1CCC1; Piperidide(4-Me) = CC1CCN(*)CC1; NMeD = CN[C@@H](CC(=O)O)C(=O)O; NMeL = CN[C@@H](CC(C)C)C(=O)O; Oxazolidin(3-yl) = C1CN(*)CO1; NMeNva = CCC[C@H](NC)C(=O)O; NMeAbu = CC[C@H](NC)C(=O)O; Morpholide = C1CN(*)CCO1; NMeA = CN[C@@H](C)C(=O)O; Ac5c = NC1(C(=O)O)CCCC1; Aze = O=C(O)[C@@H]1CCN1; X25 = CC1(C)CCN(*)C1; Sar = CNCC(=O)O

Legend:
[1] = biological target: GDP-bound NRAS wild-type protein (Homo sapiens, UniProt P01111); assay: Binding to NRAS by surface plasmon resonance (SPR), Single Cycle Kinetics; conditions: KD ratio NRAS/KRAS, SPR
[2] = biological target: GDP-bound HRAS wild-type protein (Homo sapiens, UniProt P01112); assay: Binding to HRAS by surface plasmon resonance (SPR), Single Cycle Kinetics; conditions: KD ratio HRAS/KRAS, SPR
GDP-bound HRAS wild-type protein, sequence (P01112 whole entry): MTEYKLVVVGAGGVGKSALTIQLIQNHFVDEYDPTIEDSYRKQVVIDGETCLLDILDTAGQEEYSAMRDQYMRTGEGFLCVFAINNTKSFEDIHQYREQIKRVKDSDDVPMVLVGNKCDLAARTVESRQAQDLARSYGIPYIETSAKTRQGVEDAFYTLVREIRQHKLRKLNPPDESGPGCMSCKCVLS

GDP-bound NRAS wild-type protein, sequence (P01111 whole entry): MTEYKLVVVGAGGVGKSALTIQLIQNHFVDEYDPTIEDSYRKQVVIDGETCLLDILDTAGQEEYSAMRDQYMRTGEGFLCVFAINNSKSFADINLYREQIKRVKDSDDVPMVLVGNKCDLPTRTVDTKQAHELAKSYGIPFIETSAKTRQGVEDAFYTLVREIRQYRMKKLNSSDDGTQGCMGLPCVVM

SMILES | NRAS/KRAS (ratio of KD for GDP-bound NRAS wild-type to KD for KRAS) [1] | HRAS/KRAS (ratio of KD for GDP-bound HRAS wild-type to KD for KRAS) [2]
CCCN1C(=O)[C@@H]2CCN2C(=O)[C@H](C)N(C)C(=O)[C@H]([C@@H](C)CC)NC(=O)[C@H](CC(C)C)N(C)C(=O)C[C@@H](C(=O)N2C3CCC2COC3)N(C)C(=O)[C@H](C2CCCC2)N(C)C(=O)C2(CCCC2)NC(=O)[C@@H]2CCCN2C(=O)[C@H](CCc2ccc(C(F)(F)F)c(Cl)c2)NC(=O)CN(C)C(=O)[C@@H]1Cc1ccc(C(F)(F)F)cc1 [PP0182] ([NMeL]I[NMeA][Aze][NPrPhe(4-CF3)][Sar][hPhe(3-Cl-4-CF3)]P[Ac5c][NMeGly(cPent)][NMeD]-{3Oxa8azabicyclo(3.2.1)octane}; lactam N-11) | C (A compound having a KD ratio of 0.1 or more and less than 3 is denoted as C) | B (a compound having 3 or more and less than 10 is denoted as B)
CCCN1C(=O)[C@@H]2CCN2C(=O)[C@H](C)N(C)C(=O)[C@H]([C@@H](C)CC)NC(=O)[C@H](CC(C)C)N(C)C(=O)C[C@@H](C(=O)N2CCOC2)N(C)C(=O)[C@H](C2CCCC2)N(C)C(=O)C2(CCCC2)NC(=O)[C@@H]2CCCN2C(=O)[C@H](CCc2ccc(C(F)(F)F)c(Cl)c2)NC(=O)CN(C)C(=O)[C@@H]1Cc1ccc(C(F)(F)F)cc1 [PP0183] ([NMeL]I[NMeA][Aze][NPrPhe(4-CF3)][Sar][hPhe(3-Cl-4-CF3)]P[Ac5c][NMeGly(cPent)][NMeD]-{Oxazolidin(3-yl)}; lactam N-11) | C (A compound having a KD ratio of 0.1 or more and less than 3 is denoted as C) | B (a compound having 3 or more and less than 10 is denoted as B)
CCCN1C(=O)[C@@H]2CCN2C(=O)[C@H](C)N(C)C(=O)[C@H]([C@@H](C)CC)NC(=O)[C@H](CC(C)C)N(C)C(=O)C[C@@H](C(=O)N2CCN(C3COC3)CC2)N(C)C(=O)[C@H](C2CCCC2)N(C)C(=O)C2(CCCC2)NC(=O)[C@@H]2CCCN2C(=O)[C@H](CCc2ccc(C(F)(F)F)c(Cl)c2)NC(=O)CN(C)C(=O)[C@@H]1Cc1ccc(C(F)(F)F)cc1 [PP0184] ([NMeL]I[NMeA][Aze][NPrPhe(4-CF3)][Sar][hPhe(3-Cl-4-CF3)]P[Ac5c][NMeGly(cPent)][NMeD]-{Piperazinyl(4-(3-oxetanyl))}; lactam N-11) | C (A compound having a KD ratio of 0.1 or more and less than 3 is denoted as C) | B (a compound having 3 or more and less than 10 is denoted as B)
CCCN1C(=O)[C@@H]2CCN2C(=O)[C@H](C)N(C)C(=O)[C@H]([C@@H](C)CC)NC(=O)[C@H](CC(C)C)N(C)C(=O)C[C@@H](C(=O)N2CCC(C)CC2)N(C)C(=O)[C@H](C2CCCC2)N(C)C(=O)C2(CCCC2)NC(=O)[C@@H]2CCCN2C(=O)[C@H](CCc2ccc(C(F)(F)F)c(Cl)c2)NC(=O)CN(C)C(=O)[C@@H]1Cc1ccc(C(F)(F)F)cc1 [PP0185] ([NMeL]I[NMeA][Aze][NPrPhe(4-CF3)][Sar][hPhe(3-Cl-4-CF3)]P[Ac5c][NMeGly(cPent)][NMeD]-{Piperidide(4-Me)}; lactam N-11) | C (A compound having a KD ratio of 0.1 or more and less than 3 is denoted as C) | B (a compound having 3 or more and less than 10 is denoted as B)
CCCN1C(=O)[C@@H]2CCN2C(=O)[C@H](C)N(C)C(=O)[C@H]([C@@H](C)CC)NC(=O)[C@H](CC(C)C)N(C)C(=O)C[C@@H](C(=O)N2CCC(C)(C)C2)N(C)C(=O)[C@H](C2CCCC2)N(C)C(=O)C2(CCCC2)NC(=O)[C@@H]2CCCN2C(=O)[C@H](CCc2ccc(C(F)(F)F)c(Cl)c2)NC(=O)CN(C)C(=O)[C@@H]1Cc1ccc(C(F)(F)F)cc1 [PP0186] ([NMeL]I[NMeA][Aze][NPrPhe(4-CF3)][Sar][hPhe(3-Cl-4-CF3)]P[Ac5c][NMeGly(cPent)][NMeD]-X25; lactam N-11) | C (A compound having a KD ratio of 0.1 or more and less than 3 is denoted as C) | B (a compound having 3 or more and less than 10 is denoted as B)
CCCN1C(=O)CN(C)C(=O)CN(C)C(=O)[C@H]([C@@H](C)CC)NC(=O)[C@H](CC(F)(F)F)N(C)C(=O)C[C@@H](C(=O)N2CCOCC2)N(C)C(=O)[C@H](C2CCCC2)N(C)C(=O)C2(CCCC2)NC(=O)[C@@H]2CCCN2C(=O)[C@H](CCc2ccc(C(F)(F)F)c(Cl)c2)NC(=O)CN(C)C(=O)[C@@H]1Cc1ccc(C(F)(F)F)cc1 [PP0187] ([NMeAbu(4,4,4-F3)]I[Sar][Sar][NPrPhe(4-CF3)][Sar][hPhe(3-Cl-4-CF3)]P[Ac5c][NMeGly(cPent)][NMeD]-Morpholide; lactam N-11) | B (a compound having 3 or more and less than 10 is denoted as B) | C (A compound having a KD ratio of 0.1 or more and less than 3 is denoted as C)
CCCN1C(=O)CN(C)C(=O)CN(C)C(=O)[C@H]([C@@H](C)CC)NC(=O)[C@H](C2CCC2)N(C)C(=O)C[C@@H](C(=O)N2CCOCC2)N(C)C(=O)[C@H](C2CCCC2)N(C)C(=O)C2(CCCC2)NC(=O)[C@@H]2CCCN2C(=O)[C@H](CCc2ccc(C(F)(F)F)c(Cl)c2)NC(=O)CN(C)C(=O)[C@@H]1Cc1ccc(C(F)(F)F)cc1 [PP0188] ([NMeGly(cBu)]I[Sar][Sar][NPrPhe(4-CF3)][Sar][hPhe(3-Cl-4-CF3)]P[Ac5c][NMeGly(cPent)][NMeD]-Morpholide; lactam N-11) | B (a compound having 3 or more and less than 10 is denoted as B) | C (A compound having a KD ratio of 0.1 or more and less than 3 is denoted as C)
CCC[C@H]1C(=O)N[C@@H]([C@@H](C)CC)C(=O)N(C)CC(=O)N(C)CC(=O)N(CCC)[C@@H](Cc2ccc(C(F)(F)F)cc2)C(=O)N(C)CC(=O)N[C@@H](CCc2ccc(C(F)(F)F)c(Cl)c2)C(=O)N2CCC[C@H]2C(=O)NC2(CCCC2)C(=O)N(C)[C@@H](C2CCCC2)C(=O)N(C)[C@H](C(=O)N2CCOCC2)CC(=O)N1C [PP0189] ([NMeNva]I[Sar][Sar][NPrPhe(4-CF3)][Sar][hPhe(3-Cl-4-CF3)]P[Ac5c][NMeGly(cPent)][NMeD]-Morpholide; lactam N-11) | B (a compound having 3 or more and less than 10 is denoted as B) | C (A compound having a KD ratio of 0.1 or more and less than 3 is denoted as C)
CCCN1C(=O)CN(C)C(=O)CN(C)C(=O)[C@H]([C@@H](C)CC)NC(=O)[C@H](CC)N(C)C(=O)C[C@@H](C(=O)N2CCOCC2)N(C)C(=O)[C@H](C2CCCC2)N(C)C(=O)C2(CCCC2)NC(=O)[C@@H]2CCCN2C(=O)[C@H](CCc2ccc(C(F)(F)F)c(Cl)c2)NC(=O)CN(C)C(=O)[C@@H]1Cc1ccc(C(F)(F)F)cc1 [PP0190] ([NMeAbu]I[Sar][Sar][NPrPhe(4-CF3)][Sar][hPhe(3-Cl-4-CF3)]P[Ac5c][NMeGly(cPent)][NMeD]-Morpholide; lactam N-11) | B (a compound having 3 or more and less than 10 is denoted as B) | B (a compound having 3 or more and less than 10 is denoted as B)
CCCN1C(=O)[C@@H]2CCN2C(=O)[C@H](C)N(C)C(=O)[C@H]([C@@H](C)CC)NC(=O)[C@H](CC(F)(F)F)N(C)C(=O)C[C@@H](C(=O)N2CCOCC2)N(C)C(=O)[C@H](C2CCCC2)N(C)C(=O)C2(CCCC2)NC(=O)[C@@H]2CCCN2C(=O)[C@H](CCc2ccc(C(F)(F)F)c(Cl)c2)NC(=O)CN(C)C(=O)[C@@H]1Cc1ccc(C(F)(F)F)cc1 [PP0191] ([NMeAbu(4,4,4-F3)]I[NMeA][Aze][NPrPhe(4-CF3)][Sar][hPhe(3-Cl-4-CF3)]P[Ac5c][NMeGly(cPent)][NMeD]-Morpholide; lactam N-11) | C (A compound having a KD ratio of 0.1 or more and less than 3 is denoted as C) | B (a compound having 3 or more and less than 10 is denoted as B)
CCCN1C(=O)[C@@H]2CCN2C(=O)[C@H](C)N(C)C(=O)[C@H]([C@@H](C)CC)NC(=O)[C@H](C2CCC2)N(C)C(=O)C[C@@H](C(=O)N2CCOCC2)N(C)C(=O)[C@H](C2CCCC2)N(C)C(=O)C2(CCCC2)NC(=O)[C@@H]2CCCN2C(=O)[C@H](CCc2ccc(C(F)(F)F)c(Cl)c2)NC(=O)CN(C)C(=O)[C@@H]1Cc1ccc(C(F)(F)F)cc1 [PP0192] ([NMeGly(cBu)]I[NMeA][Aze][NPrPhe(4-CF3)][Sar][hPhe(3-Cl-4-CF3)]P[Ac5c][NMeGly(cPent)][NMeD]-Morpholide; lactam N-11) | C (A compound having a KD ratio of 0.1 or more and less than 3 is denoted as C) | B (a compound having 3 or more and less than 10 is denoted as B)
CCC[C@H]1C(=O)N[C@@H]([C@@H](C)CC)C(=O)N(C)[C@@H](C)C(=O)N2CC[C@H]2C(=O)N(CCC)[C@@H](Cc2ccc(C(F)(F)F)cc2)C(=O)N(C)CC(=O)N[C@@H](CCc2ccc(C(F)(F)F)c(Cl)c2)C(=O)N2CCC[C@H]2C(=O)NC2(CCCC2)C(=O)N(C)[C@@H](C2CCCC2)C(=O)N(C)[C@H](C(=O)N2CCOCC2)CC(=O)N1C [PP0193] ([NMeNva]I[NMeA][Aze][NPrPhe(4-CF3)][Sar][hPhe(3-Cl-4-CF3)]P[Ac5c][NMeGly(cPent)][NMeD]-Morpholide; lactam N-11) | C (A compound having a KD ratio of 0.1 or more and less than 3 is denoted as C) | C (A compound having a KD ratio of 0.1 or more and less than 3 is denoted as C)
